Measurements taken from patent US10028992B2, “Methods of treating muscular dystrophy” (BOARD OF REGENTS OF THE NEVADA SYSTEM OF HIGHER EDUCATION …, priority 2012, dated 2018).

Tested on: α7 integrin promoter
Assay: muscle cell-based assay: α7βgal+/− myoblasts/myotubes, LacZ reporter, β-galactosidase cleavage of FDG
Set-up: species or system mouse; Results in α7+/− β-galactosidase assay: scale not given here
Conditions: Myoblasts
Outline: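 Fluorescein generated from FDG by β-galactosidase reports α7 integrin promoter activity in differentiated myoblasts from α7+/− LacZ knock-in pups. Screening hits then went to dose-response, western blotting and a myostatin counterscreen.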

| Compound | Results in α7+/− β-galactosidase assay (0.5 uM) | Results in α7+/− β-galactosidase assay (1 uM) | Results in α7+/− β-galactosidase assay (5 uM) | Results in α7+/− β-galactosidase assay (10 uM) | Results in α7+/− β-galactosidase assay (20 uM) | Results in α7+/− β-galactosidase assay (40 uM) |
| --- | --- | --- | --- | --- | --- | --- |
| O=C1Nc2ccccc2/C1=C/c1c[nH]c(-c2ccccc2)n1 [drawing 548] | 0.05646 | 0.09843 | 0.2266 | 0.1719 | 0.06424 | 0.08092 |
| O=C(c1ccccc1)N1CCN(S(=O)(=O)c2cccs2)CC1 [drawing 549] | 0.05147 | 0.1507 | 0.1856 | −0.01279 | 0.05474 | 0.09083 |
| COc1ccccc1C(=O)Nc1ccnn1C1CCN(C(=O)c2ccoc2)CC1 [drawing 551] | −0.09644 | −0.04841 | 0.05814 | 0.02292 | 0.01412 | −0.05323 |
| CCOC(=O)c1nnn(-c2nonc2OC)c1-c1ccccc1 [drawing 552] | 0.01584 | 0.107 | 0.07484 | −0.08302 | 0.003125 | −0.1081 |
| CC(C)(C)Nc1nc(-c2ccc3c(c2)CCN3C(=O)C2CC2)cs1 [drawing 553] | 0.1228 | 0.2827 | 0.1111 | −0.01717 | −0.1366 | −0.2135 |
| CCN(C(=O)c1ccc(S(=O)(=O)N(C)C)cc1)C(C)C(=O)Nc1ccc(C)cc1 (stereo not drawn) [drawing 556] | −0.05004 | −0.1349 | −0.02565 | 0.2444 | −0.07832 | −0.2867 |
| COc1cc(NC(=O)OCc2ccccc2)c2ncccc2c1 [drawing 557] | 0.0156 | −0.08284 | 0.01997 | 0.2347 | −0.06526 | −0.1686 |
| Cc1ccc2c(c1)/C(=C/c1ccccc1C)C(=O)N2 [drawing 558] | 0.05088 | −0.09662 | −0.07445 | 0.08015 | −0.3519 | −0.675 |
| O=C(NCCc1ccccc1)C1CCC(=O)N1C1CCCC1 (stereo not drawn) [drawing 559] | −0.1018 | −0.1461 | 0.003015 | 0.245 | 0.1433 | 0.02863 |
| CCCN(C(=O)c1ccc(S(=O)(=O)N2CCCC2)cc1)C1CCS(=O)(=O)C1 (stereo not drawn) [drawing 560] | −0.1431 | −0.1722 | −0.06143 | 0.1978 | 0.07259 | −0.0646 |
| C=CCOc1ccc(C(=O)/C=C2\C(=O)Nc3ccccc32)cc1 [drawing 561] | −0.1092 | −0.1536 | −0.257 | −0.2991 | −0.2121 | −0.7606 |
| CCN(CC(=O)NCc1cccs1)C(=O)COc1ccc(C(N)=O)cc1 [drawing 562] | −0.04485 | −0.05578 | −0.03005 | 0.2509 | −0.05432 | −0.02246 |
| CC(C)Oc1cccc(C(=O)Nc2ccc(CN3CCOCC3)cc2)c1 [drawing 563] | −0.0458 | −0.04183 | 0.01603 | 0.2092 | 0.7886 | −0.0962 |
| Cc1ccc(/C=C2\C(=O)Nc3ccccc32)o1 [drawing 564] | 0.06962 | 0.01537 | −0.08809 | −0.1824 | −0.2196 | −0.6995 |
